Experimental data as given in PMC7797697 (Theranostics, 2021).

What was measured:
[1] = test system: MDA-MB-231 cells; assay: Intracellular calcium measurement (Fluo-4-AM); assay type: cell-based, human; settings: 100 nM or 200 nM for 24 h
Description: After treatment, the cells were digested and seeded in 96-well black plates (Corning Costar, Cambridge, MA, USA) and cultured for 20 h. For measurement of [Ca^2+]i, the cells were labeled with Fluo-4-AM in serum-free medium for half an hour at room temperature. After washing with Dulbecco's Phosphate Buffered Saline (D-PBS), cells were overlaid in Hank's balanced salt solution (5.4 mM KCl, 1 mM MgCl2, 20 mM hydroxyethyl piperazineethanesulfonic acid (HEPES), 120 mM NaCl, 10 mM glucose, 0.2 mM Ethylenebis(oxyethylenenitrilo)tetraacetic acid (EGTA)). Continuous fluorescence intensity was detected after thrombin was added as a calcium agonist by an automated sampler. Response over baseline was assessed as a relative measure of [Ca^2+]i.
As previously stated, studies have shown that the Ca^2+ signals can modulate cancer progression by regulating migration, proliferation, cell stress, and apoptosis.

[2] = test system: Primary breast tumor cells; assay: CCK8 assay IC50; assay type: cell-based, human; settings: Homo sapiens, breast cancer, 72 h
Source text: (§1) HeLa, MCF-7 and MDA-MB-231 cell lines were purchased from the American Type Culture Collection. MCF-10A, T-47D, PANC-1, A549, HCT-15, Caco-2, SMMC-7721, SH-SY5Y, HUVEC and PC-3 cell lines were obtained from the Chinese Academy of Medical Sciences. MEF was isolated from pregnant mice at 14‒16 days of pregnancy. Primary breast cancer cells were isolated from breast cancer patients. All media including Dulbecco Modified Eagle Medium (DMEM), RPMI 1640 Medium and DMEM/Nutrient Mixture F-12 were supplemented with 10% fetal bovine serum (FBS), 100 units/mL penicillin, and […] streptomycin (Gibco, Waltham, MA, USA). Cells were cultured in a humidified incubator equilibrated with 5% CO2 at 37 °C. Cells were treated for 24-72 h in adherent conditions with compounds from an epigenetic small molecule inhibitor library (L1200, Topscience, Shanghai, China).
Cell viability was then detected using a CCK8 assay (MedChemExpress, USA) according to the manufacturer's instructions.
Statistical analyses of all data were performed using GraphPad Prism (version 8.0, Graph Pad Software Inc., San Diego, CA, USA). All the data were analyzed by Student's t-test or one-way ANOVA. The Z-Score was chosen to evaluate the results and experimental deviation. Quantitative data are presented as the mean ± SD. […] IC50 was calculated using a four-parameter fit with variable slope in GraphPad Prism.

[3] = test system: RGS2 promoter; assay: qChIP of H3 acetylation; assay type: cell-based; settings: MDA-MB-231, T-47D and 4T1 cells
Description: Briefly, the cells were cross-linked with 1% formaldehyde, sonicated, pre-cleared, and incubated with 4 μg of Ace-H3 antibody or IgG, which was followed by the addition of Dynabeads Protein G. Next, the beads were washed with high- and low-salt-concentration buffers, and DNA was eluted and purified using the QIAquick PCR Purification Kit. The amount of the DNA template was analyzed by qPCR using primers specific for five promoter regions.

[4] = test system: MDA-MB-231 xenografts; assay: MDA-MB-231 xenograft anti-tumor activity; assay type: in vivo, nude mice; settings: i.v., 50 mg/kg
Description: MDA-MB-231 (5 × 10^6 cells) were inoculated into the left abdominal mammary fat pad of 6-week-old female nude mice, and tumor growth was monitored. […] After four weeks of treatment, all mice were sacrificed according to ethical guidelines. Tumors were excised and analyzed. Tumor volume was measured using a Vernier caliper and calculated according to the following formula: π/6 × length × width^2. All animal handling and procedures were approved by the Capital Medical University Institutional Animal Care. Tumor and adjacent tissues were rapidly fixed in 4% paraformaldehyde (Sigma-Aldrich) for at least 24 h and embedded in paraffin for microscopic examination. From the prepared paraffin blocks, 5-μm thick sections were cut and stained with hematoxylin and eosin (H&E) for light microscopic observation. Sections were processed as per standard protocols using 3,3'-diaminobenzidine (DAB) staining. All human and mouse tissues were collected according to protocols approved by the Ethics Committee of Capital Medical University, and informed consent was obtained from all patients.

[5] = test system: MDA-MB-231 cells; assay: High-content epigenetic inhibitor screen, quantification of living cells; assay type: cell-based, human; settings: 72 h
Source text: as §1
Statistical analyses of all data were performed using GraphPad Prism (version 8.0, Graph Pad Software Inc., San Diego, CA, USA). All the data were analyzed by Student's t-test or one-way ANOVA. The Z-Score was chosen to evaluate the results and experimental deviation. Quantitative data are presented as the mean ± SD. The asterisk (*) denotes statistically significant difference (P < 0.05). IC50 was calculated using a four-parameter fit with variable slope in GraphPad Prism.
To identify potential anti-tumor inhibitors, we screened an epigenetic small molecule inhibitor library for anti-tumor activity in breast cancer cells. […] The selection strategy mainly comprised three stages, in which different concentrations (high to low) of inhibitors screened with a high-content analysis instrument were identified using cancer cell lines in a 96-well plate format (Figure 1A). For the first step, we treated cells with a high concentration of compounds to exclude compounds ineffective in killing cancer cells. MDA-MB-231 cells, a human breast cancer cell line, were treated with 167 epigenetic compounds (30 μM each) for 48 h, and then analyzed by high-content analysis, where changes in cell morphology relative to the control (dimethyl sulfoxide, DMSO) would indicate modulation of cancer cells by compound treatment. […] At the second step, we treated the cells with the 60 compounds at a median concentration (3 μM) for 72 h to screen for inhibitors that can kill cancer cells with high efficiency.

[6] = test system: MDA-MB-231 cells; assay: RT-qPCR of marker genes; assay type: cell-based, human
Description: (§2) Reverse transcription was performed using the RevertAid First Strand cDNA Synthesis Kit ([…]) according to the manufacturer's instructions. The primers for the detection of target mRNA are shown in Table S2. β-actin was used as an internal reference. The relative expression of target genes was calculated by the 2^-ΔΔCt method.

[7] = test system: MDA-MB-231, T-47D, and primary breast tumor cells; assay: Colony formation assay; assay type: cell-based, human; settings: crystal violet staining
Description: The colony-formation ability of MDA-MB-231 and T-47D cells were measured by the clonogenic assay. […] After treatment, cells were digested and suspended in culture medium at a density of 5 × 10^3 cells/ml. Cells (2,000 cells per well) were seeded into 6-well plates and cultured for two weeks. The, cells were fixed with 4% formaldehyde and washed with phosphate-buffered saline (PBS) and stained with crystal violet for half an hour. Images of colonies were captured using a light microscope.

[8] = test system: MDA-MB-231 cells; assay: TUNEL assay; assay type: cell-based, human; settings: compared to DMSO treatment
Source text: Apoptosis was detected using a Cell Death Detection Fluorescein Kit for TUNEL assay (RiboBio, Guangzhou, China) according to the manufacturer's instructions. […] Signals were detected by fluorescence microscopy. Non-apoptotic cells were visualized under a DAPI (4′,6-diamidino-2-phenylindole) filter.

[9] = test system: Gαq, PLCβ3, PMCA1 and PMCA4b in MDA-MB-231 cells; assay: Expression of calcium influx and efflux markers (Western blot, RT-qPCR); assay type: cell-based, human
Description: as §2

[10] = test system: MDA-MB-231 and primary breast tumor cells; assay: EdU incorporation assay; assay type: cell-based, human; settings: compared to DMSO treatment
Source text: After that, DNA proliferation was detected using an EdU assay kit according to the manufacturer's instructions (RiboBio, Guangzhou, China).

In the case of CN(C)Cc1c(C(=O)NCCOc2ccc(C(=O)NO)cc2)oc2ccccc12 [PCI-24781], the “influx of intracellular calcium ions induced by thrombin, ionomycin, and carbachol” value [1] is reported as “completely inhibited”, the IC50 [2] is reported as 0.876 µM and the “H3 acetylation at RGS2 promoter regions (qChIP)” value [3] is reported as “strong binding to RGS2 #2 and #3 promoter regions of H3 acetylation”. The “Ki-67 staining of tumor tissues” value [4] was “inhibited tumor proliferation”, the tumor growth inhibition ([4]; every other day for four weeks, compared to control group, P < 0.0001) was 74.6% and the “RGS2 IHC staining in tumor tissues” value ([4]; versus control group) was “more abundant and more intensely stained”. For the same compound, the cell death ([5]; 0.15 μM) was ~ 20%, the “effect on cell survival” value ([5]; 3 μM) was “discernible effects on cell survival” and the “expression of Ca^2+-related pathway markers (SYT1, SYTL2, SYT7, SYT12, TC2N, MMP1, MMP3, PLCβ3)” value [6] was “downregulated”. The “expression of MMP2, MMP15, and MMP16” value [6] was “significantly inhibited”, the “expression of epithelial markers (α-catenin, γ-catenin)” value [6] was “significant upregulation” and the “mRNA levels of mesenchymal/NE markers (N-cadherin, vimentin, fibronectin, Syn, ASH1, NCAM1)” value [6] was “either inhibited or unaffected”. The colony formation [7] was “decreased colony formation”, the “apoptosis (TUNEL)” value [8] was “higher rate of apoptosis” and the “expression levels of PMCA1 and PMCA4b” value ([9]; MDA-MB-231, RT-qPCR) was “not affected”. The “expression levels of Gαq and PLCβ3” value ([9]; MDA-MB-231, Western blot and RT-qPCR) was “significantly decreased” and the “cell proliferation (EdU incorporation)” value [10] was “decreased proliferation”.
